24 molecules from US20070049593A1 (priority 2004, published 2007) can be followed below.

The test concerns the target T1, HCV polymerase (Hepatitis C virus genotype 1b, UniProt P26663).
T1 construct: a region encoding NS5B (J Virol 1991 March, 65(3), 1105-13, 544 amino acids after deletion of 47 amino acids on the C-terminal); 6xHis (C); made in house; host or cells: Escherichia coli
Briefly: biochemical. Further details: species or system HCV BK strain. An outline of the steps: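 Recombinant HCV BK-strain NS5B (C-terminal 47 aa deleted, His6-tagged, E. coli), 0.5 μg/ml, run with 5 μg/ml in vitro-transcribed RNA template (polyU/3′X), ATP/GTP/CTP 50 μM, UTP 2 μM plus [3H]UTP, pH 7.5, 25° C, 90 min. TCA-precipitated RNA counted by scintillation; IC50 from activity with vs without compound.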

Setting [1] is: read-out: HCV polymerase inhibitory activity IC50, 25° C., 90 min, [5,6-3H]UTP incorporation into RNA.

Counter-ions that a name gives are not always drawn. Like-named read-outs stand apart in the source and are kept apart here. Bounds are passed on as bounds.

T1 sequence (P26663 2420-2963): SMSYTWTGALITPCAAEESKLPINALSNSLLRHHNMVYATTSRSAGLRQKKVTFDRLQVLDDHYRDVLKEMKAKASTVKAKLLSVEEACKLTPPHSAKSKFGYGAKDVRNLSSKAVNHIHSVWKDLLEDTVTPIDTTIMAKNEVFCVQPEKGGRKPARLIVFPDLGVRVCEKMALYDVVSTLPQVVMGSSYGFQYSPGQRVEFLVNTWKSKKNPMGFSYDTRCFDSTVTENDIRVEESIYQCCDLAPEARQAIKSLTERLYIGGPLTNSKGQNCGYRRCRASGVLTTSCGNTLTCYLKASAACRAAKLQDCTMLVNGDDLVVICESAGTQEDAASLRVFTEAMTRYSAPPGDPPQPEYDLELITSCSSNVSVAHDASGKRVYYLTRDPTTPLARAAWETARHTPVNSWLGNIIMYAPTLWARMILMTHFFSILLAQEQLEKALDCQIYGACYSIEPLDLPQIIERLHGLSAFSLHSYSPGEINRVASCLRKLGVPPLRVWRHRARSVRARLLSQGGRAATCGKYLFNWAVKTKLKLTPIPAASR

As for `COCC[C@H]1CCCN(CCN2CCn3c(c(C4CCCCC4)c4ccc(C(=O)O)cc43)-c3ccc(Cl)cc32)C1` [Example 1-398, 3-chloro-13-cyclohexyl-5-{2-[(R)-3-(2-methoxyethyl)piperidin-1-yl]ethyl}-6,7-dihydro-5H-benzo[5,6][1,4]diazepino[7,1-a]indole-10-carboxylic acid dihydrochloride], the IC50 was < 100 nM.
The same measure, in the same setting: the value for `O=C(O)c1ccc2c(C3CCCC3)c3n(c2c1)CCN(CCN1CCCCC1)c1ccccc1-3` [Example 1-399, 13-cyclopentyl-5-[2-(piperidin-1-yl)ethyl]-6,7-dihydro-5H-benzo[5,6][1,4]diazepino[7,1-a]indole-10-carboxylic acid monohydrochloride] was < 100 nM; that for `CCN1CCCC(OCCN2CCn3c(c(C4CCCCC4)c4ccc(C(=O)O)cc43)-c3ccc(Cl)cc32)C1` (stereo not drawn) [Example 1-400, 3-chloro-13-cyclohexyl-5-[2-(1-ethylpiperidin-3-yloxy)ethyl]-6,7-dihydro-5H-benzo[5,6][1,4]diazepino[7,1-a]indole-10-carboxylic acid dihydrochloride] was < 100 nM; that for `Cc1nc(COc2ccc3c(c2)N(CCN2CCCCC2)CCn2c-3c(C3CCCCC3)c3ccc(C(=O)O)cc32)cs1` [Example 1-401, 13-cyclohexyl-3-(2-methylthiazol-4-ylmethoxy)-5-[2-(piperidin-1-yl)ethyl]-6,7-dihydro-5H-benzo[5,6][1,4]diazepino[7,1-a]indole-10-carboxylic acid dihydrochloride] was < 100 nM.
For `Cc1nc(C)c(COc2ccc3c(c2)N(CCN2CCCCC2)CCn2c-3c(C3CCCCC3)c3ccc(C(=O)O)cc32)s1` [Example 1-402, 13-cyclohexyl-3-(2,4-dimethylthiazol-5-ylmethoxy)-5-[2-(piperidin-1-yl)ethyl]-6,7-dihydro-5H-benzo[5,6][1,4]diazepino[7,1-a]indole-10-carboxylic acid dihydrochloride], the IC50 was < 100 nM.
Still for that read-out and setting: then `CCN(CCCN1CCn2c(c(C3CCCCC3)c3ccc(C(=O)O)cc32)-c2ccc(Cl)cc21)C(C)C` [Example 1-403, 3-chloro-13-cyclohexyl-5-[3-(N-ethyl-N-isopropylamino)propyl]-6,7-dihydro-5H-benzo[5,6][1,4]diazepino[7,1-a]indole-10-carboxylic acid dihydrochloride], with < 100 nM; and `O=C(O)c1ccc2c(C3CCCCC3)c3n(c2c1)CCN(CC[C@@H]1CCCN(C2CCCC2)C1)c1cc(Cl)ccc1-3` [Example 1-404, 3-chloro-13-cyclohexyl-5-[2-((S)-1-cyclopentylpiperidin-3-yl)ethyl]-6,7-dihydro-5H-benzo[5,6][1,4]diazepino[7,1-a]indole-10-carboxylic acid dihydrochloride], with < 100 nM.
On the same count and under the same terms, the value for `CC(C)OCC1CCCN(CCN2CCn3c(c(C4CCCCC4)c4ccc(C(=O)O)cc43)-c3ccccc32)C1` (stereo not drawn) [Example 1-405, 13-cyclohexyl-5-[2-(3-isopropoxymethylpiperidin-1-yl)ethyl]-6,7-dihydro-5H-benzo[5,6][1,4]diazepino[7,1-a]indole-10-carboxylic acid dihydrochloride] was < 100 nM; that for `CC(C)OCC1CCCN(CCN2CCn3c(c(C4CCCCC4)c4ccc(C(=O)O)cc43)-c3ccc(Cl)cc32)C1` (stereo not drawn) [Example 1-406, 3-chloro-13-cyclohexyl-5-[2-(3-isopropoxymethylpiperidin-1-yl)ethyl]-6,7-dihydro-5H-benzo[5,6][1,4]diazepino[7,1-a]indole-10-carboxylic acid dihydrochloride] was < 100 nM; that for `Cc1ccc2c(c1)N(CCN1CCCC(COC(C)C)C1)CCn1c-2c(C2CCCCC2)c2ccc(C(=O)O)cc21` (stereo not drawn) [Example 1-407, 13-cyclohexyl-5-[2-(3-isopropoxymethylpiperidin-1-yl)ethyl]-3-methyl-6,7-dihydro-5H-benzo[5,6][1,4]diazepino[7,1-a]indole-10-carboxylic acid dihydrochloride] was < 100 nM.
For `O=C(O)c1ccc2c(C3CCCCC3)c3n(c2c1)CCN(CC[C@H]1CCCN(C2CCCC2)C1)c1cc(Cl)ccc1-3` [Example 1-408, 3-chloro-13-cyclohexyl-5-[2-((R)-1-cyclopentylpiperidin-3-yl)ethyl]-6,7-dihydro-5H-benzo[5,6][1,4]diazepino[7,1-a]indole-10-carboxylic acid dihydrochloride], the IC50 was < 100 nM.
On the same count and under the same terms, the value for `COCC[C@H]1CCCN(CCN2CCn3c(c(C4CCCCC4)c4ccc(C(=O)O)cc43)-c3ccc(C)cc32)C1` [Example 1-409, 13-cyclohexyl-5-{2-[(R)-3-(2-methoxyethyl)piperidin-1-yl]ethyl}-3-methyl-6,7-dihydro-5H-benzo[5,6][1,4]diazepino[7,1-a]indole-10-carboxylic acid dihydrochloride] was < 100 nM.
The same measure, in the same setting: then `CCCN1CCCC(CCN2CCn3c(c(C4CCCCC4)c4ccc(C(=O)O)cc43)-c3ccc(C)cc32)C1` (stereo not drawn) [Example 1-410, 13-cyclohexyl-3-methyl-5-[2-(1-propylpiperidin-3-yl)ethyl]-6,7-dihydro-5H-benzo[5,6][1,4]diazepino[7,1-a]indole-10-carboxylic acid dihydrochloride], with < 100 nM.
Same read-out and setting: then `CCN1CCCC(CCCN2CCn3c(c(C4CCCCC4)c4ccc(C(=O)O)cc43)-c3ccc(Cl)cc32)C1` (stereo not drawn) [Example 1-411, 3-chloro-13-cyclohexyl-5-[3-(1-ethylpiperidin-3-yl)propyl]-6,7-dihydro-5H-benzo[5,6][1,4]diazepino[7,1-a]indole-10-carboxylic acid dihydrochloride], with < 100 nM; and `O=C(O)c1ccc2c(C3CCCCC3)c3n(c2c1)CCN(CCCC1CCCN(C2CCCC2)C1)c1cc(Cl)ccc1-3` (stereo not drawn) [Example 1-412, 3-chloro-13-cyclohexyl-5-[3-(1-cyclopentylpiperidin-3-yl)propyl]-6,7-dihydro-5H-benzo[5,6][1,4]diazepino[7,1-a]indole-10-carboxylic acid dihydrochloride], with < 100 nM; and `COCC[C@@H]1CCCN(CCN2CCn3c(c(C4CCCCC4)c4ccc(C(=O)O)cc43)-c3ccc(C)cc32)C1` [Example 1-413, 13-cyclohexyl-5-{2-[(S)-3-(2-methoxyethyl)piperidin-1-yl]ethyl}-3-methyl-6,7-dihydro-5H-benzo[5,6][1,4]diazepino[7,1-a]indole-10-carboxylic acid dihydrochloride], with < 100 nM.
For `CC(C)N1CCCC(CCN2CCn3c(c(C4CCCC4)c4ccc(C(=O)O)cc43)-c3ccc(Cl)cc32)C1` (stereo not drawn) [Example 1-414, 3-chloro-13-cyclopentyl-5-[2-(1-isopropylpiperidin-3-yl)ethyl]-6,7-dihydro-5H-benzo[5,6][1,4]diazepino[7,1-a]indole-10-carboxylic acid monohydrochloride], the IC50 was < 100 nM.
Same read-out and setting: the value for `O=C(O)c1ccc2c(C3CCCCC3)c3n(c2c1)CCN(CCCCN1CCCCC1)c1cc(Cl)ccc1-3` [Example 1-415, 3-chloro-13-cyclohexyl-5-[4-(piperidin-1-yl)butyl]-6,7-dihydro-5H-benzo[5,6][1,4]diazepino[7,1-a]indole-10-carboxylic acid] was < 100 nM.
As for `COC[C@@H]1CCCN(CCN2CCn3c(c(C4CCCCC4)c4ccc(C(=O)O)cc43)-c3ccc(C)cc32)C1` [Example 1-416, 13-cyclohexyl-5-[2-((R)-3-methoxymethylpiperidin-1-yl)ethyl]-3-methyl-6,7-dihydro-5H-benzo[5,6][1,4]diazepino[7,1-a]indole-10-carboxylic acid dihydrochloride], the IC50 under setting [1] was < 100 nM.
`COC[C@H]1CCCN(CCN2CCn3c(c(C4CCCCC4)c4ccc(C(=O)O)cc43)-c3ccc(C)cc32)C1` [Example 1-417, 13-cyclohexyl-5-[2-((S)-3-methoxymethylpiperidin-1-yl)ethyl]-3-methyl-6,7-dihydro-5H-benzo[5,6][1,4]diazepino[7,1-a]indole-10-carboxylic acid dihydrochloride]: the IC50 was < 100 nM.
The same measure, in the same setting: then `CS(=O)(=O)c1cccc(COc2ccc3c(c2)N(CCN2CCCCC2)CCn2c-3c(C3CCCCC3)c3ccc(C(=O)O)cc32)c1` [Example 1-418, 13-cyclohexyl-3-(3-methanesulfonylbenzyloxy)-5-[2-(piperidin-1-yl)ethyl]-6,7-dihydro-5H-benzo[5,6][1,4]diazepino[7,1-a]indole-10-carboxylic acid dihydrochloride], with < 100 nM; and `CC[C@@H]1CCCN(CCN2CCn3c(c(C4CCCCC4)c4ccc(C(=O)O)cc43)-c3ccc(C)cc32)C1` [Example 1-420, 13-cyclohexyl-5-[2-((R)-3-ethylpiperidin-1-yl)ethyl]-3-methyl-6,7-dihydro-5H-benzo[5,6][1,4]diazepino[7,1-a]indole-10-carboxylic acid dihydrochloride], with < 100 nM.
The same measure, in the same setting: the value for `CC[C@H]1CCCN(CCN2CCn3c(c(C4CCCCC4)c4ccc(C(=O)O)cc43)-c3ccc(C)cc32)C1` [Example 1-422, 13-cyclohexyl-5-[2-((S)-3-ethylpiperidin-1-yl)ethyl]-3-methyl-6,7-dihydro-5H-benzo[5,6][1,4]diazepino[7,1-a]indole-10-carboxylic acid dihydrochloride] was < 100 nM.
Turning to `O=C(O)c1ccc2c(C3CCCCC3)c3n(c2c1)CCN(CCN1CCCCCCC1)c1ccccc1-3` [Example 1-423, 5-[2-(azocan-1-yl)ethyl]-13-cyclohexyl-6,7-dihydro-5H-benzo[5,6][1,4]diazepino[7,1-a]indole-10-carboxylic acid dihydrochloride], under setting [1], the IC50 is < 100 nM.

The term IC50 denotes the concentration that inhibits the measured activity by half.
